Test results taken from PubChem BioAssay AID248 (DTP/NCI, 2004).
Inconclusive results and toxic doses are left out. No stated cut-off is given here; in the data, active means T/C of 150% or more; inactive means T/C below 125%.

Tested on: L1210 leukemia ip in BDF1 mice, survival T/C
Assay: NCI In Vivo Anticancer Drug Screen. Data for tumor model L1210 Leukemia (intraperitoneal) in B6D2F1 (BDF1) mice
Conditions: endpoint: mean survival time, higher = longer survival
Summary of the method: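 Antitumor effect is assessed in tumor-bearing animals. Survival in the compound arm is compared with a vehicle-dosed control arm and expressed as their quotient.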

[1] = dose: 100.0 mg/kg/injection, schedule: Q01DX001 (ip), vehicle: saline
[2] = dose: 100.0 mg/kg/injection, schedule: Q04DX003 (ip), vehicle: saline
[3] = dose: 200.0 mg/kg/injection, schedule: Q01DX001 (ip), vehicle: saline
[4] = dose: 200.0 mg/kg/injection, schedule: Q04DX003 (ip), vehicle: saline
[5] = dose: 400.0 mg/kg/injection, schedule: Q01DX001 (ip), vehicle: saline
[6] = dose: 400.0 mg/kg/injection, schedule: Q04DX003 (ip), vehicle: saline
[7] = dose: 100.0 mg/kg/injection, schedule: Q01DX009 (ip), vehicle: Klucel (hydroxypropylcellulose) (HPC)
[8] = dose: 100.0 mg/kg/injection, schedule: Q04DX003 (ip), vehicle: Klucel (hydroxypropylcellulose) (HPC)
[9] = dose: 200.0 mg/kg/injection, schedule: Q01DX009 (ip), vehicle: Klucel (hydroxypropylcellulose) (HPC)
[10] = dose: 200.0 mg/kg/injection, schedule: Q04DX003 (ip), vehicle: Klucel (hydroxypropylcellulose) (HPC)
[11] = dose: 400.0 mg/kg/injection, schedule: Q01DX009 (ip), vehicle: Klucel (hydroxypropylcellulose) (HPC)
[12] = dose: 400.0 mg/kg/injection, schedule: Q04DX003 (ip), vehicle: Klucel (hydroxypropylcellulose) (HPC)
[13] = dose: 100.0 mg/kg/injection, schedule: Q04DX003 (ip), vehicle: saline with Tween-80
[14] = dose: 200.0 mg/kg/injection, schedule: Q04DX003 (ip), vehicle: saline with Tween-80
[15] = dose: 100.0 mg/kg/injection, schedule: Q01DX009 (ip), vehicle: saline
[16] = dose: 200.0 mg/kg/injection, schedule: Q01DX009 (ip), vehicle: saline
[17] = dose: 400.0 mg/kg/injection, schedule: Q01DX009 (ip), vehicle: saline

Measured: T/C

COc1ccccc1OC(=O)Nc1ccc(S(=O)(=O)N(C)C)cc1
inactive: [1] 97 % of control | [2] 97 % of control | [3] 100 % of control | [4] 95 % of control | [5] 91 % of control | [6] 97 % of control

S=C(Cc1cc(Cl)ccc1Cl)N1CCOCC1
inactive: dose: 100.0 mg/kg/injection, schedule: Q04DX002 (ip), vehicle: Klucel (hydroxypropylcellulose) (HPC) 95 % of control | dose: 200.0 mg/kg/injection, schedule: Q04DX002 (ip), vehicle: Klucel (hydroxypropylcellulose) (HPC) 109 % of control | dose: 400.0 mg/kg/injection, schedule: Q04DX002 (ip), vehicle: Klucel (hydroxypropylcellulose) (HPC) 98 % of control

Nc1nc(N)c2nnsc2n1
inactive: dose: 100.0 mg/kg/injection, schedule: Q01DX001 (ip), vehicle: saline with Tween-80 101 % of control | dose: 200.0 mg/kg/injection, schedule: Q01DX001 (ip), vehicle: saline with Tween-80 96 % of control | dose: 400.0 mg/kg/injection, schedule: Q01DX001 (ip), vehicle: saline with Tween-80 90 % of control

Clc1nnc(NC2CCCCC2)c(Cl)c1Cl
inactive: [7] 102 % of control | [8] 91 % of control | [9] 102 % of control | [10] 91 % of control | [11] 110 % of control | [12] 92 % of control

CC(=O)OCC(=O)c1cc(C)n(C)c(=O)c1CN1C(=O)c2ccccc2C1=O
inactive: dose: 100.0 mg/kg/injection, schedule: Q01DX009 (ip), vehicle: saline with Tween-80 107 % of control | [13] 97 % of control | dose: 200.0 mg/kg/injection, schedule: Q01DX009 (ip), vehicle: saline with Tween-80 102 % of control | [14] 96 % of control | dose: 400.0 mg/kg/injection, schedule: Q01DX009 (ip), vehicle: saline with Tween-80 108 % of control | dose: 400.0 mg/kg/injection, schedule: Q04DX003 (ip), vehicle: saline with Tween-80 96 % of control

CCCOC1=C(Br)C(=O)c2ccccc2C1=O
inactive: dose: 15.0 mg/kg/injection, schedule: Q01DX001 (ip), vehicle: carboxymethylcellulose (CMC) 98 % of control | dose: 30.0 mg/kg/injection, schedule: Q01DX001 (ip), vehicle: carboxymethylcellulose (CMC) 97 % of control

Nc1nc(N)c2nc(CNc3ccc(Cl)cc3)cnc2n1
inactive: dose: 20.0 mg/kg/injection, schedule: Q01DX009 (ip), vehicle: Klucel (hydroxypropylcellulose) (HPC) 96 % of control | dose: 40.0 mg/kg/injection, schedule: Q01DX009 (ip), vehicle: Klucel (hydroxypropylcellulose) (HPC) 96 % of control | dose: 80.0 mg/kg/injection, schedule: Q01DX009 (ip), vehicle: Klucel (hydroxypropylcellulose) (HPC) 104 % of control

Cc1ncc2c(=O)n(-c3ccc(C(=O)O)cc3)[nH]c2n1
inactive: dose: 75.0 mg/kg/injection, schedule: Q04DX003 (ip), vehicle: Klucel (hydroxypropylcellulose) (HPC) 103 % of control | dose: 100.0 mg/kg/injection, schedule: Q01DX001 (ip), vehicle: Klucel (hydroxypropylcellulose) (HPC) 94 % of control | dose: 150.0 mg/kg/injection, schedule: Q04DX003 (ip), vehicle: Klucel (hydroxypropylcellulose) (HPC) 106 % of control | dose: 200.0 mg/kg/injection, schedule: Q01DX001 (ip), vehicle: Klucel (hydroxypropylcellulose) (HPC) 97 % of control | dose: 300.0 mg/kg/injection, schedule: Q04DX003 (ip), vehicle: Klucel (hydroxypropylcellulose) (HPC) 90 % of control | dose: 400.0 mg/kg/injection, schedule: Q01DX001 (ip), vehicle: Klucel (hydroxypropylcellulose) (HPC) 110 % of control

OCC1OC(c2ccccc2)OC(CO)C(O)C1O (centres undefined)
inactive: [13] 88 % of control | [14] 88 % of control

CCOC(=O)C(C(=O)c1ccccc1)=P(c1ccccc1)(c1ccccc1)c1ccccc1
inactive: [8] 100 % of control | [10] 100 % of control | [12] 102 % of control

C[N+](C)(C)C1/C=C(/Cl)CC/C=C(/Cl)C1 (centres undefined)
inactive: dose: 9.38 mg/kg/injection, schedule: Q01DX001 (ip), vehicle: saline 96 % of control | dose: 18.75 mg/kg/injection, schedule: Q01DX001 (ip), vehicle: saline 89 % of control | dose: 37.5 mg/kg/injection, schedule: Q01DX001 (ip), vehicle: saline 97 % of control

O=C(O)C1CCC(=O)C2CCCCC12 (centres undefined)
inactive: [1] 97 % of control | [3] 94 % of control | [5] 95 % of control

CCOC(=O)C12CCC(CC1)C(C(=O)O)C2C(=O)O (centres undefined)
inactive: dose: 75.0 mg/kg/injection, schedule: Q04DX002 (ip), vehicle: saline with Tween-80 99 % of control | dose: 150.0 mg/kg/injection, schedule: Q04DX002 (ip), vehicle: saline with Tween-80 89 % of control | dose: 300.0 mg/kg/injection, schedule: Q04DX002 (ip), vehicle: saline with Tween-80 92 % of control

CC(C)N=C(c1ccccc1)N(O)c1ccccc1
inactive: dose: 75.0 mg/kg/injection, schedule: Q01DX001 (ip), vehicle: saline 93 % of control | dose: 150.0 mg/kg/injection, schedule: Q01DX001 (ip), vehicle: saline 101 % of control | dose: 300.0 mg/kg/injection, schedule: Q01DX001 (ip), vehicle: saline 91 % of control

CSCCO
inactive: [15] 89 % of control | dose: 100.0 mg/kg/injection, schedule: Q04DX003 (ip), vehicle: saline sonified 102 % of control | [16] 100 % of control | dose: 200.0 mg/kg/injection, schedule: Q04DX003 (ip), vehicle: saline sonified 116 % of control | [17] 96 % of control | dose: 400.0 mg/kg/injection, schedule: Q04DX003 (ip), vehicle: saline sonified 98 % of control

Clc1ccc(CSc2nc3ccccc3[nH]2)cc1
inactive: [7] 94 % of control | [9] 103 % of control | [11] 103 % of control

S=c1cccc[nH]1
inactive: [8] 101 % of control | [10] 102 % of control | [12] 96 % of control

CCCCN(CCCC)C(=O)CC(C)(O)c1ccccc1 (centres undefined)
inactive: dose: 50.0 mg/kg/injection, schedule: Q01DX001 (ip), vehicle: saline 96 % of control | [1] 107 % of control | [3] 94 % of control | [5] 96 % of control

FN1C(F)(F)C(F)(F)C(F)(F)C(F)(F)C1(F)F
inactive: dose: 100.0 mg/kg/injection, schedule: Q01DX001 (ip), vehicle: acetone 100 % of control | dose: 200.0 mg/kg/injection, schedule: Q01DX001 (ip), vehicle: acetone 87 % of control | dose: 400.0 mg/kg/injection, schedule: Q01DX001 (ip), vehicle: acetone 92 % of control

O=c1[nH]c2ccccc2n1C1=CCN(Cc2ccccc2)CC1
inactive: [8] 95 % of control | [10] 109 % of control | [12] 112 % of control

CN(C)C(=O)NNC(=O)N(C)C
inactive: [15] 103 % of control | [2] 94 % of control | [16] 95 % of control | [4] 96 % of control | [17] 95 % of control | [6] 100 % of control

NCCCCC(N)C(=O)NCCCCCCN(CCCCCCNC(=O)C(N)CCCCN)C(=O)C(N)CCCCN (centres undefined)
inactive: [1] 92 % of control

CSc1ccc(NC(=O)Nc2cc(C)ccc2N=Nc2ccc(C)cc2)cc1
inactive: dose: 100.0 mg/kg/injection, schedule: Q01DX009 (ip), vehicle: other 89 % of control | dose: 200.0 mg/kg/injection, schedule: Q01DX009 (ip), vehicle: other 102 % of control | dose: 400.0 mg/kg/injection, schedule: Q01DX009 (ip), vehicle: other 96 % of control
